Results reported in PubChem BioAssay AID1313 (NMMLSC, 2008).
Calls of active or inactive are those of the source.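 Rule for the calls: active = compounds raising total GFP signal across six hours by more than 15% versus untreated cells; inactive = the rest.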 Peptide text beside a SMILES is read from it. * marks the point of attachment. Cbz = O=C(OCc1ccccc1)*

Test system: S. cerevisiae Sic1-GFP degradation, flow cytometry time course
Experiment: inhibition of Sic1-GFP fusion degradation in yeast, secondary assay, flow cytometry, S. cerevisiae (AID 1313)
Conditions: stronger effect = higher value; for GFP expression remaining at 240 min: measured here: earlier time point

| SMILES | GFP expression remaining at 360 min | GFP expression remaining at 240 min [%] |
| --- | --- | --- |
| CC(=O)N1C(=O)C(=C2C=C(C)OC(C)=C2)c2ccccc21 | 0.71% (inactive) | 1.3 |
| CC(C)C[C@@H](C=O)NC(=O)[C@H](CC(C)C)NC(=O)[C@H](CC(C)C)NC(=O)OCc1ccccc1 (Cbz-Leu-Leu-Leu-aldehyde) | 1.68% (inactive) | 3.24 |
